Among the data in PubChem BioAssay AID1188 (EPA DSSTox, 2008) are Potency and outcome values, retold here.

SMILES strings stand for the structures. Active and inactive are the calls of the source.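 How the source made its calls: active means a concentration killing half the fathead minnows in the acute test was determined; inconclusive means some fish died but not half at top dose; inactive means no fish died even at top dose.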

The test system of the data set is Fathead minnow (Pimephales promelas) acute toxicity, lethality. Nature of the data set: DSSTox (EPAFHM) EPA Fathead Minnow Acute Toxicity. An excerpt:
The EPA Fathead Minnow Acute Toxicity database was generated by the U.S. EPA Mid-Continental Ecology Division (MED) for the purpose of developing an expert system to predict acute toxicity from chemical structure based on mode of action considerations. […] A second valuable aspect of this database, from a QSAR modeling perspective, is the inclusion of general mode-of-action (MOA) classifications of acute toxicity response for individual chemicals derived from study results. MOA assignments are biologically based classifications, allowing definition of chemical similarity based upon biological activity instead of organic chemistry functional class as most commonly employed in QSAR study. MOA classifications should strengthen the scientific basis for construction of individual QSARs. However, it is cautioned that the broad MOA categorizations should not be construed to represent a single molecular mechanism; for example, CNS seizure agents and respiratory inhibitors are known to act through a variety of receptors. The EPA Fathead Minnow database and results have been used by EPA MED to build components of the ASTER prediction system, which incorporates MOA-based QSARs for the prediction of aquatic toxicity of environmental and industrial chemicals. Briefly, MOA classifications for individual chemicals, derived from experiments and provided in the EPA Fathead Minnow database, were used to derive substructural rules for assigning a new chemical to an MOA category based solely on chemical structure. Once a new chemical is assigned to an MOA category on this basis, the logP-based QSAR for that MOA category is applied.
The DSSTox EPAFHM database (available from the DSSTox Source URL) includes information pertaining to organic chemical class assignments (ChemClass_FHM), acute toxicity in fathead minnow (LC50_mg), dose-response assessments (LC50_Ratio, ExcessToxicityIndex), behavioral assessments (FishBehaviorTest), joint toxicity MOA evaluations of mixtures (MOA_MixtureTest), and additional MOA evaluation of fish acute toxicity syndrome (FishAcuteToxSyndrome) in rainbow trout. All of these indicators, to the extent available, were considered in the determination of MOA and, additionally, were used to determine a level of confidence in the MOA assignment for each chemical (MOA_Confidence). […] Activity Score is mapping of LOG10 (1/LC50_mmol) activity values spanning activity range [MIN, MAX] onto Integer 1-100 Activity range, where 100 is highest potency and 1 is lowest. If Activity Outcome is "active": Activity Score = 100 * INTEGER[(log10(1/ LC50_mmol) - MIN)/([…])].
Turning to `CNC(=O)Oc1cccc2c1OC(C)(C)C2`, the Potency was 3.81 µM.
On to `C=CC(=O)OC1CCCCC1`, for which the Potency is 9.6 µM.
As for `C=CC(=O)OCCO`, the Potency is 41.4 µM.
The same measure, in the same setting: the value for `CCCCOc1ccccc1` was 38 µM; that for `O=[N+]([O-])c1ccc(O)c([N+](=O)[O-])c1` was 59.2 µM; that for `Oc1cccc2ccccc12` was 32.1 µM.
As for `CC1(C)C(C=C(Cl)Cl)C1C(=O)OCc1cccc(Oc2ccccc2)c1` (stereo unspecified), the Potency is 0.0409 µM.
As for `CCCCSCCCC`, the Potency is 24.5 µM.
Consider `Cc1ccc(N)cc1`, for which the Potency was 1490 µM.
Turning to `O=C(c1ccc(Br)cc1)c1cccnc1`, the Potency is 77.8 µM.
With `CCCCCCCCCO`, the Potency was 39.5 µM.
On the same count and under the same terms, the value for `CCCCCCCCOc1ccccc1NC(C)=O` was 1.71 µM; that for `CNC(=O)O/N=C(\SC)C(=O)N(C)C` was 30.9 µM; that for `O=[N+]([O-])c1ncccc1O` was 1190 µM.
In the case of `Cc1ccc(OP(=O)(Oc2ccc(C)c(C)c2)Oc2ccc(C)c(C)c2)cc1C`, the outcome is “inactive; moa not determined either due to lack of toxicity at saturation or late test res”.
Turning to `CCCSSCCC`, the Potency was 17 µM.
The same measure, in the same setting: the same measure for `CC(=O)c1cccn1C`: 1280 µM.
Turning to `CCCCCCN`, the Potency was 559 µM.
As to `ClC(Cl)C(Cl)Cl`, the Potency was 121 µM.
On the same count and under the same terms, the same measure for `CCCCN(C=O)CCCC`: 568 µM; for `O=Cc1ccc(Cl)cc1Cl`: 10.3 µM; for `Oc1ccccc1O`: 83.7 µM.
In the case of `O=[N+]([O-])c1c(Cl)cc(Cl)c([N+](=O)[O-])c1Cl`, the Potency is 0.818 µM.
The same measure, in the same setting: the same measure for `CC(C)C1=CC2=CC[C@@H]3[C@](C)(CCC[C@@]3(C)C(=O)O)[C@H]2CC1`: 7.87 µM.
Still for that read-out and setting: the value for `NC(=O)c1c(Cl)cccc1Cl` was 2470 µM; that for `COc1ccc(O)cc1` was 886 µM.
Consider `CC(C)O`, for which the Potency was 144000 µM.
Still for that read-out and setting: the same measure for `C/C=C/C=C/C`: 243 µM.
Turning to `CCSCCCCSCC`, the Potency is 34 µM.
The same measure, in the same setting: the value for `c1ccc(Nc2ccccc2)cc1` was 22.4 µM; that for `Cc1nnc(N)nc1C` was 7670 µM; that for `N#CCCl` was 17.8 µM.
The same measure, in the same setting: the value for `Cc1cccc([N+](=O)[O-])c1` was 187 µM; that for `O=c1cccc(Cl)[nH]1` was 1650 µM.
Still for that read-out and setting: the same measure for `CC1(C)NC(=O)NC1=O`: 129000 µM; for `O=c1ccc(Cl)c[nH]1`: 8800 µM.
Consider `CCN(CC)c1ccccc1`, for which the Potency was 110 µM.
As to `Cc1cccc(Cl)n1`, the Potency was 1820 µM.
Consider `CCCCOC(=O)c1ccc(C(=O)OCCCC)cc1`, for which the Potency was 2.12 µM.
`C1CCCCC1`: the Potency is 53.8 µM.
The same measure, in the same setting: the same measure for `CC(C)(C)SSC(C)(C)C`: 7.68 µM; for `BrCC1CCCCO1` (stereo unspecified): 1150 µM; for `CC(=O)/C=C/C1=C(C)CCCC1(C)C`: 26.5 µM.
On to `c1ccccc1`, for which the Potency was 225 µM.
Same read-out and setting: the same measure for `OCCN(CCO)c1ccccc1`: 4060 µM; for `Cc1ccc(Cl)c(Cl)c1`: 18.1 µM; for `NCCN1CCNCC1`: 17000 µM.
Still for that read-out and setting: the value for `CCC(C)C(C)C=O` (stereo unspecified) was 140 µM.
Still for that read-out and setting: the same measure for `C#CC(O)(c1ccccc1)c1ccccc1`: 53.3 µM.
Turning to `Oc1ccccc1-c1ccccc1`, the Potency was 36.1 µM.
Consider `CCCCCCCCCCCCCN`, for which the Potency is 0.328 µM.
Take `CCC#N`: the Potency was 27600 µM.
Same read-out and setting: the value for `COc1ccc(C=O)c(OC)c1` was 121 µM; that for `CCOCCOCCO` was 198000 µM; that for `C=CCc1ccccc1O` was 112 µM.
Still for that read-out and setting: the value for `OCC(F)(F)F` was 1190 µM.
The same measure, in the same setting: the value for `CCCCCCCCCC(C)=O` was 8.81 µM; that for `Oc1c(Cl)c(Cl)c(Cl)c(Cl)c1Cl` was 0.912 µM; that for `Cc1ccncc1` was 4330 µM.
As for `Cc1ncc[nH]1`, the Potency was 3480 µM.
The same measure, in the same setting: the value for `CCOC(CN(C)CC(OCC)OCC)OCC` was 2410 µM.
